# Values quoted from earlier work in patent US20250134912A1 (Theaprin Pharmaceuticals, Inc., priority 2021, published 2025).
# Tests used:
# [1] = test system: critically ill children with suspected zinc deficiency; conditions: in vivo, iv, 0.75 mg/kg/day
# [2] = test system: hospitalized patients with COVID-19; conditions: aspirin used was not an aspirin/theanine cocrystal
# patients with COVID-19 = conditions: 31 patients with COVID-19, in comparison to the controlled patients
# SARS-COV-2 = conditions: SARS-COV-2, in vitro
# [3] = at 25° C.
smiles,measurement,setting,value
[Zn] [Elemental zinc],adverse effects,[1],without producing any adverse effects
"CC(=O)Oc1ccccc1C(=O)O [aspirin, acetylsalicylic acid]","mechanical ventilation, ICU admission, and in-hospital mortality",[2],decrease
"OCCN(CCO)c1nc(N2CCCCC2)c2nc(N(CCO)CCO)nc(N3CCCCC3)c2n1 [dipyridamole, 2,6 bis-(diethanolamino)-4,8 dipiperidino-pyrimido-(5,4-d)pyrimidine]",clinical outcomes,patients with COVID-19,markedly improved
same,lymphocyte and plasma platelet recovery,patients with COVID-19,increased
same,D-Dimer,patients with COVID-19; P>0.05,significantly decreased
same,viral replication in vitro,SARS-COV-2,suppressed
"[Cl-].[Cl-].[Zn+2] [zinc chloride, Zinc chloride]",water solubility,[3],432 g/100 ml water
